{"source": "patent US12077503B2", "about": "“Substituted cyclic amides and their use as herbicides” (FMC CORPORATION, priority 2015, dated 2024)", "assay_type_in_all_cases": "in vivo", "key": {"[1]": {"test_system": "ivy-leaved morning glory (Ipomoea hederacea)", "test": "Test G Pre-Emergence Protocol", "conditions": "Ipomoea, pre-emergence, 312 h, evaluated after 13 days", "procedure,_shortened": "(§1)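 Seeds were sown in standard soil and kept one day in a glasshouse (24/16° C day/night, 14 h light, 65% humidity), then sprayed with compound in acetone/water (50:50) containing 0.5% Tween 20 at 15.625, 62.5 or 250 g/ha. Damage was scored after 13 days (0 = none, 100 = total).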"}, "[2]": {"test_system": "giant foxtail (Setaria faberi)", "test": "Test G Pre-Emergence Protocol", "conditions": "Setaria faberi, pre-emergence, 312 h, evaluated after 13 days", "procedure,_shortened": "as §1"}, "[3]": {"test_system": "redroot pigweed (Amaranthus retroflexus)", "test": "Test G Pre-Emergence Protocol", "conditions": "Amaranthus retroflexus, pre-emergence, 312 h, evaluated after 13 days", "procedure,_shortened": "as §1"}, "[4]": {"test_system": "barnyardgrass (Echinochloa crus-galli)", "test": "Test G Pre-Emergence Protocol", "conditions": "Echinochloa crus-galli, pre-emergence, 312 h, evaluated after 13 days", "procedure,_shortened": "as §1"}, "[5]": {"test_system": "velvetleaf (Abutilon theophrasti)", "test": "Test G Pre-Emergence Protocol", "conditions": "Abutilon theophrasti, pre-emergence, 312 h, evaluated after 13 days", "procedure,_shortened": "as §1"}, "[6]": {"test_system": "corn (Zea mays)", "test": "Test G Pre-Emergence Protocol", "conditions": "Zea mays, pre-emergence, 312 h, evaluated after 13 days", "procedure,_shortened": "as §1"}, "[7]": {"test_system": "ivy-leaved morning glory (Ipomoea hederacea)", "test": "Test G Post-Emergence Protocol", "conditions": "Ipomoea, post-emergence, 312 h", "procedure,_shortened": "(§2)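 Pot-grown seedlings, 8 days old, raised in a glasshouse at 24/16 °C day/night with 14 h light and 65% humidity, were sprayed post-emergence with test compound in acetone/water (50:50) plus 0.5% Tween 20 at 15.625, 62.5 or 250 g/ha. Damage was scored visually 13 days later on a 0–100 scale (100 = total damage).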"}, "[8]": {"test_system": "giant foxtail (Setaria faberi)", "test": "Test G Post-Emergence Protocol", "conditions": "Setaria faberi, post-emergence, 312 h", "procedure,_shortened": "as §2"}, "[9]": {"test_system": "redroot pigweed (Amaranthus retroflexus)", "test": "Test G Post-Emergence Protocol", "conditions": "Amaranthus retroflexus, post-emergence, 312 h", "procedure,_shortened": "as §2"}, "[10]": {"test_system": "barnyardgrass (Echinochloa crus-galli)", "test": "Test G Post-Emergence Protocol", "conditions": "Echinochloa crus-galli, post-emergence, 312 h", "procedure,_shortened": "as §2"}, "[11]": {"test_system": "velvetleaf (Abutilon theophrasti)", "test": "Test G Post-Emergence Protocol", "conditions": "Abutilon theophrasti, post-emergence, 312 h", "procedure,_shortened": "as §2"}, "[12]": {"test_system": "corn (Zea mays)", "test": "Test G Post-Emergence Protocol", "conditions": "Zea mays, post-emergence, 312 h", "procedure,_shortened": "as §2"}}}
{"smiles": "Cc1cccc(NC(=O)[C@@H]2C(=O)N(C)C[C@H]2c2ccc(C(F)(F)F)cc2)c1Br", "note": "(racemic) [Compound 1617]", "values": [{"measurement": "pest or weed control at 15.625 g/ha", "setting": "[1]; 15.625 g ai/ha, read-out: Morning-glory, Ivy-leaved damage rating (100=total damage to plant; 0=no damage to plant)", "result": 0, "unit": "%"}, {"measurement": "pest or weed control at 62.5 g/ha", "setting": "[1]; 62.5 g ai/ha, 100=total damage to plant, 0=no damage to plant, read-out: plant damage rating, Morningglory, Ivy-leaved", "result": 0, "unit": "%"}, {"measurement": "pest or weed control at 250 g/ha", "setting": "[1]; 250 g ai/ha, read-out: Morningglory, Ivy-leaved damage rating (100=total damage to plant; 0=no damage to plant)", "result": 0, "unit": "%"}, {"measurement": "pest or weed control at 15.625 g/ha", "setting": "[2]; 15.625 g ai/ha, read-out: Foxtail, Giant damage rating (100=total damage to plant; 0=no damage to plant)", "result": 20, "unit": "%"}, {"measurement": "pest or weed control at 62.5 g/ha", "setting": "[2]; 62.5 g ai/ha, 100=total damage to plant, 0=no damage to plant, read-out: plant damage rating, Foxtail, Giant", "result": 80, "unit": "%"}, {"measurement": "pest or weed control at 250 g/ha", "setting": "[2]; 250 g ai/ha, read-out: Foxtail, Giant damage rating (100=total damage to plant; 0=no damage to plant)", "result": 90, "unit": "%"}, {"measurement": "pest or weed control at 15.625 g/ha", "setting": "[3]; 15.625 g ai/ha, read-out: Pigweed, Redroot damage rating (100=total damage to plant; 0=no damage to plant)", "result": 0, "unit": "%"}, {"measurement": "pest or weed control at 62.5 g/ha", "setting": "[3]; 62.5 g ai/ha, 100=total damage to plant, 0=no damage to plant, read-out: plant damage rating, Pigweed, Redroot", "result": 10, "unit": "%"}, {"measurement": "pest or weed control at 250 g/ha", "setting": "[3]; 250 g ai/ha, read-out: Pigweed, Redroot damage rating (100=total damage to plant; 0=no damage to plant)", "result": 20, "unit": "%"}, {"measurement": "pest or weed control at 15.625 g/ha", "setting": "[4]; 15.625 g ai/ha, read-out: Barnyard grass damage rating (100=total damage to plant; 0=no damage to plant)", "result": 10, "unit": "%"}, {"measurement": "pest or weed control at 62.5 g/ha", "setting": "[4]; 62.5 g ai/ha, 100=total damage to plant, 0=no damage to plant, read-out: plant damage rating, Barnyardgrass", "result": 30, "unit": "%"}, {"measurement": "pest or weed control at 250 g/ha", "setting": "[4]; 250 g ai/ha, read-out: Barnyardgrass damage rating (100=total damage to plant; 0=no damage to plant)", "result": 80, "unit": "%"}, {"measurement": "pest or weed control at 15.625 g/ha", "setting": "[5]; 15.625 g ai/ha, read-out: Velvetleaf damage rating (100=total damage to plant; 0=no damage to plant)", "result": 0, "unit": "%"}, {"measurement": "pest or weed control at 62.5 g/ha", "setting": "[5]; 62.5 g ai/ha, 100=total damage to plant, 0=no damage to plant, read-out: plant damage rating, Velvetleaf", "result": 0, "unit": "%"}, {"measurement": "pest or weed control at 250 g/ha", "setting": "[5]; 250 g ai/ha, read-out: Velvetleaf damage rating (100=total damage to plant; 0=no damage to plant)", "result": 10, "unit": "%"}, {"measurement": "plant injury at 15.625 g/ha", "setting": "[6]; 15.625 g ai/ha, read-out: Corn damage rating (100=total damage to plant; 0=no damage to plant)", "result": 0, "unit": "%"}, {"measurement": "plant injury at 62.5 g/ha", "setting": "[6]; 62.5 g ai/ha, 100=total damage to plant, 0=no damage to plant, read-out: plant damage rating, Corn", "result": 0, "unit": "%"}, {"measurement": "plant injury at 250 g/ha", "setting": "[6]; 250 g ai/ha, read-out: Corn damage rating (100=total damage to plant; 0=no damage to plant)", "result": 0, "unit": "%"}, {"measurement": "pest or weed control at 15.625 g/ha", "setting": "[7]; 15.625 g ai/ha, evaluated after 13 days (100=total damage to plant; 0=no damage to plant), read-out: Morningglory, Ivy-leaved damage rating", "result": 0, "unit": "%"}, {"measurement": "pest or weed control at 62.5 g/ha", "setting": "[7]; 62.5 g ai/ha, evaluated after 13 days, read-out: Morningglory, Ivy-leaved damage rating (100=total damage to plant; 0=no damage to plant)", "result": 0, "unit": "%"}, {"measurement": "pest or weed control at 250 g/ha", "setting": "[7]; 250 g ai/ha, evaluated after 13 days, read-out: damage to plant, Morningglory, Ivy-leaved (100=total damage to plant; 0=no damage to plant)", "result": 0, "unit": "%"}, {"measurement": "pest or weed control at 15.625 g/ha", "setting": "[8]; 15.625 g ai/ha, evaluated after 13 days (100=total damage to plant; 0=no damage to plant), read-out: Foxtail, Giant damage rating", "result": 20, "unit": "%"}, {"measurement": "pest or weed control at 62.5 g/ha", "setting": "[8]; 62.5 g ai/ha, evaluated after 13 days, read-out: Foxtail, Giant damage rating (100=total damage to plant; 0=no damage to plant)", "result": 40, "unit": "%"}, {"measurement": "pest or weed control at 250 g/ha", "setting": "[8]; 250 g ai/ha, evaluated after 13 days, read-out: damage to plant, Foxtail, Giant (100=total damage to plant; 0=no damage to plant)", "result": 70, "unit": "%"}, {"measurement": "pest or weed control at 15.625 g/ha", "setting": "[9]; 15.625 g ai/ha, evaluated after 13 days (100=total damage to plant; 0=no damage to plant), read-out: Pigweed, Redroot damage rating", "result": 0, "unit": "%"}, {"measurement": "pest or weed control at 62.5 g/ha", "setting": "[9]; 62.5 g ai/ha, evaluated after 13 days, read-out: Pigweed, Redroot damage rating (100=total damage to plant; 0=no damage to plant)", "result": 0, "unit": "%"}, {"measurement": "pest or weed control at 250 g/ha", "setting": "[9]; 250 g ai/ha, evaluated after 13 days, read-out: damage to plant, Pigweed, Redroot (100=total damage to plant; 0=no damage to plant)", "result": 0, "unit": "%"}, {"measurement": "pest or weed control at 15.625 g/ha", "setting": "[10]; 15.625 g ai/ha, evaluated after 13 days (100=total damage to plant; 0=no damage to plant), read-out: Barnyardgrass damage rating", "result": 0, "unit": "%"}, {"measurement": "pest or weed control at 62.5 g/ha", "setting": "[10]; 62.5 g ai/ha, evaluated after 13 days, read-out: Barnyardgrass damage rating (100=total damage to plant; 0=no damage to plant)", "result": 0, "unit": "%"}, {"measurement": "pest or weed control at 250 g/ha", "setting": "[10]; 250 g ai/ha, evaluated after 13 days, read-out: damage to plant, Barnyardgrass (100=total damage to plant; 0=no damage to plant)", "result": 60, "unit": "%"}, {"measurement": "pest or weed control at 15.625 g/ha", "setting": "[11]; 15.625 g ai/ha, evaluated after 13 days (100=total damage to plant; 0=no damage to plant), read-out: Velvetleaf damage rating", "result": 0, "unit": "%"}, {"measurement": "pest or weed control at 62.5 g/ha", "setting": "[11]; 62.5 g ai/ha, evaluated after 13 days, read-out: Velvetleaf damage rating (100=total damage to plant; 0=no damage to plant)", "result": 0, "unit": "%"}, {"measurement": "pest or weed control at 250 g/ha", "setting": "[11]; 250 g ai/ha, evaluated after 13 days, read-out: damage to plant, Velvetleaf (100=total damage to plant; 0=no damage to plant)", "result": 0, "unit": "%"}, {"measurement": "plant injury at 15.625 g/ha", "setting": "[12]; 15.625 g ai/ha, evaluated after 13 days (100=total damage to plant; 0=no damage to plant), read-out: Corn damage rating", "result": 0, "unit": "%"}, {"measurement": "plant injury at 62.5 g/ha", "setting": "[12]; 62.5 g ai/ha, evaluated after 13 days, read-out: Corn damage rating (100=total damage to plant; 0=no damage to plant)", "result": 0, "unit": "%"}, {"measurement": "plant injury at 250 g/ha", "setting": "[12]; 250 g ai/ha, evaluated after 13 days, read-out: damage to plant, Corn (100=total damage to plant; 0=no damage to plant)", "result": 0, "unit": "%"}]}
